Test results as given in PMC6001238, “Iterative Chemical Engineering of Vancomycin Leads to Novel Vancomycin Analogs With a High in Vitro Therapeutic Index” (Frontiers in Microbiology, 2018).
≈ marks a conversion by molar mass, not a printed value. Read-outs that look alike come from different tables or passages of the source.

What was measured:
[1] = tested on: E. faecalis VSE 1; assay: MIC, broth microdilution, vancomycin-sensitive E. faecalis (VSE 1); format: cell-based, Enterococcus faecalis
Method in brief: (§1)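 Inhibitory concentrations were read by the CLSI broth microdilution procedure, with water and sterile broth as controls. One experiment added vancomycin (10 μM final) together with each analogue or reference antibiotic.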

[2] = tested on: E. faecalis VRE 6; assay: MIC, broth microdilution, vancomycin-resistant E. faecalis VRE 6 (VanA); format: cell-based, Enterococcus faecalis
Method in brief: as §1

[3] = tested on: E. faecalis VRE 53; assay: MIC, broth microdilution, vancomycin-resistant E. faecalis VRE 53 (VanA); format: cell-based, Enterococcus faecalis
Method in brief: as §1

[4] = tested on: E. faecalis VRE 29; assay: MIC, broth microdilution, vancomycin-resistant E. faecalis VRE 29 (VanA); format: cell-based, Enterococcus faecalis
Method in brief: as §1

[5] = tested on: E. faecalis VRE 37; assay: MIC, broth microdilution, vancomycin-resistant E. faecalis VRE 37 (VanA); format: cell-based, Enterococcus faecalis
Method in brief: as §1

[6] = tested on: Murine leukemia (L1210) cells; assay: Cytostatic activity, L1210 cell proliferation; format: cell-based; conditions: mean ± SD of three experiments; highest concentration tested 250 µM; 2 days; read-out: Toxicity (IC50) L1210
Method in brief: (§2)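 Test compounds, serially diluted, received an equal volume of cell suspension at 300,000–500,000 cells/mL. After 37°C incubation (2 days for L1210, 3 for CEM, 4 for HeLa), cells were enumerated by Coulter counting and 50%-inhibitory concentrations calculated per cell type.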

[7] = tested on: human T-lymphocyte (CEM) cells; assay: Cytostatic activity, CEM cell proliferation; format: cell-based; conditions: mean ± SD of three experiments; highest concentration tested 250 µM; 3 days; read-out: Toxicity (IC50) CEM
Method in brief: as §2

[8] = tested on: human cervix carcinoma (HeLa) cells; assay: Cytostatic activity, HeLa cell proliferation; format: cell-based; conditions: mean ± SD of three experiments; highest concentration tested 250 µM; 4 days; read-out: Toxicity (IC50) HeLa
Method in brief: as §2

[9] = tested on: L1210, CEM and HeLa cell lines; assay: Cytostatic activity, average or summary over L1210, CEM and HeLa; format: cell-based
Method in brief: as §2

[10] = tested on: S. aureus VSSA (ATCC 6538); assay: MIC, broth microdilution, vancomycin-sensitive S. aureus (VSSA/MSSA, ATCC 6538); format: cell-based, Staphylococcus aureus
Method in brief: as §1

[11] = tested on: S. aureus VISA/HIP5827; assay: MIC, broth microdilution, vancomycin-intermediate S. aureus VISA HIP5827; format: cell-based, Staphylococcus aureus
Method in brief: as §1

[12] = tested on: S. aureus VRSA; assay: MIC, broth microdilution, vancomycin-resistant S. aureus (VRSA); format: cell-based, Staphylococcus aureus
Method in brief: as §1

[13] = tested on: MRSA KS2; assay: MIC, broth microdilution, MRSA KS2; format: cell-based, Staphylococcus aureus
Method in brief: as §1

[14] = tested on: MRSA KS6; assay: MIC, broth microdilution, MRSA KS6; format: cell-based, Staphylococcus aureus
Method in brief: as §1

[15] = tested on: MRSA KS89; assay: MIC, broth microdilution, MRSA KS89; format: cell-based, Staphylococcus aureus
Method in brief: as §1

[16] = tested on: MRSA KS1; assay: MIC, broth microdilution, MRSA KS1; format: cell-based, Staphylococcus aureus
Method in brief: as §1

[17] = tested on: 33 clinical VRE isolates; assay: MIC against a set of 33 clinical VRE isolates (range, MIC50, TI); format: cell-based, Enterococcus faecalis
Method in brief: as §1

[18] = tested on: 24 clinical MRSA isolates; assay: MIC against a set of 24 clinical MRSA isolates (range, MIC50, TI); format: cell-based, Staphylococcus aureus
Method in brief: as §1

[19] = tested on: Clostridium difficile ATJ ribotype 014/20; assay: MIC, plate drop assay, C. difficile ATJ ribotype 014/20; format: cell-based; conditions: C. difficile ATJ ribotype 014/20
Method in brief: (§3)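 Lawns of each strain were made in soft BHI agar (0.4%) supplemented with CaCl2⋅2H2O and MgCl2⋅6H2O. Twofold compound dilutions (10 μL) were spotted, air-dried and incubated overnight at 37°C anaerobically; MIC read as cleared spots, in triplicate with water as negative control.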

[20] = tested on: Clostridium difficile AIU ribotype 027; assay: MIC, plate drop assay, C. difficile AIU ribotype 027; format: cell-based; conditions: for MIC-fold improvement vs. vancomycin: C. difficile AIU ribotype 027
Method in brief: as §3

[21] = tested on: VE 148 (VanB); assay: MIC, VanB-type VRE strain VE 148; format: cell-based, Enterococcus; conditions: VE 148, VanB; read-out: MIC
Method in brief: as §1

[22] = tested on: VE 149 (VanB); assay: MIC, VanB-type VRE strain VE 149; format: cell-based, Enterococcus; conditions: VE 149, VanB; read-out: MIC
Method in brief: as §1

[23] = tested on: VE 150 (VanB); assay: MIC, VanB-type VRE strain VE 150; format: cell-based, Enterococcus; conditions: VE 150, VanB; read-out: MIC
Method in brief: as §1

[24] = tested on: VE 152 (VanB); assay: MIC, VanB-type VRE strain VE 152; format: cell-based, Enterococcus; conditions: VE 152, VanB; read-out: MIC
Method in brief: as §1

[25] = tested on: VE 157 (VanB); assay: MIC, VanB-type VRE strain VE 157; format: cell-based, Enterococcus; conditions: VE 157, VanB; read-out: MIC
Method in brief: as §1

[26] = tested on: VE 82 (VanC1); assay: MIC, VanC1-type VRE strain VE 82; format: cell-based, Enterococcus gallinarum; conditions: VE 82, VanC1; read-out: MIC
Method in brief: as §1

[27] = tested on: MRSA; assay: Minimum bactericidal concentration against MRSA; format: cell-based, Staphylococcus aureus
Method: Plates were incubated overnight at 37°C and colony growth was inspected.

In the case of `CN[C@H](CC(C)C)C(=O)N[C@H]1C(=O)N[C@@H](CC(N)=O)C(=O)N[C@H]2C(=O)N[C@H]3C(=O)N[C@H](C(=O)N[C@H](C(=O)NCC(=O)Nc4ccc5c(c4)Cc4ccccc4-5)c4cc(O)cc(O)c4-c4cc3ccc4O)[C@H](O)c3ccc(c(Cl)c3)Oc3cc2cc(c3O[C@@H]2O[C@H](CO)[C@@H](O)[C@H](O)[C@H]2O[C@H]2C[C@](C)(N)[C@H](O)[C@H](C)O2)Oc2ccc(cc2Cl)[C@H]1O` [Vanc-42], the MIC ([1]; Enterococcus faecalis VSE 1 (vancomycin-sensitive), read-out: MIC) is reported as 0.20 µM (≈ 0.334 µg/mL), the “MIC-fold improvement vs. vancomycin” value ([1]; VSE 1, ratio of MIC of vancomycin and MIC of analogue) is reported as 8 and the MIC ([2]; Enterococcus faecalis VRE 6 (vancomycin-resistant), read-out: MIC) is reported as 0.78 µM (≈ 1.3 µg/mL). For the same molecule, the “MIC-fold improvement vs. vancomycin” value ([2]; VRE 6, ratio of MIC of vancomycin and MIC of analogue) was 256, the MIC ([3]; Enterococcus faecalis VRE 53 (vancomycin-resistant), read-out: MIC) was 12.5 µM (≈ 20.9 µg/mL) and the “MIC-fold improvement vs. vancomycin” value ([3]; VRE 53, ratio of MIC of vancomycin and MIC of analogue) was 32. For the same molecule, the MIC ([4]; Enterococcus faecalis VRE 29 (vancomycin-resistant), read-out: MIC) was 1.56 µM (≈ 2.6 µg/mL), the “MIC-fold improvement vs. vancomycin” value ([4]; VRE 29, ratio of MIC of vancomycin and MIC of analogue) was 256 and the MIC ([5]; Enterococcus faecalis VRE 37 (vancomycin-resistant), read-out: MIC) was 3.13 µM (≈ 5.23 µg/mL). For the same molecule, the “MIC-fold improvement vs. vancomycin” value ([5]; VRE 37, ratio of MIC of vancomycin and MIC of analogue) was 128, the IC50 [6] was 177 ± 103 µM and the IC50 [7] was 92 ± 3 µM. For the same molecule, the IC50 [8] was greater than 250 µM, the IC50 ([9]; average IC50 used for TI in Table S5, >250 entered as 250, read-out: IC50) was 173 µM and the IC50 ([9]; average of L1210, CEM and HeLa, read-out: Toxicity (IC50) Average) was 173 µM. For the same molecule, the MIC ([10]; Staphylococcus aureus VSSA, read-out: MIC) was 0.78 µM (≈ 1.3 µg/mL), the “MIC-fold improvement vs. vancomycin” value ([10]; VSSA, ratio of MIC of vancomycin and MIC of analogue) was 1 and the MIC ([11]; Staphylococcus aureus VISA/HIP5827, read-out: MIC) was 0.78 µM (≈ 1.3 µg/mL). The “MIC-fold improvement vs. vancomycin” value ([11]; VISA/HIP5827, ratio of MIC of vancomycin and MIC of analogue) was 8, the MIC ([12]; Staphylococcus aureus VRSA, read-out: MIC) was 1.56 µM (≈ 2.6 µg/mL) and the “MIC-fold improvement vs. vancomycin” value ([12]; VRSA, ratio of MIC of vancomycin and MIC of analogue) was 64. For the same molecule, the “MIC-fold improvement vs. vancomycin” value ([13]; MRSA KS2, ratio of MIC of vancomycin and MIC of analogue) was 4, the MIC ([13]; Staphylococcus aureus MRSA KS2, read-out: MIC) was 0.20 µM (≈ 0.334 µg/mL) and the “MIC-fold improvement vs. vancomycin” value ([14]; MRSA KS6, ratio of MIC of vancomycin and MIC of analogue) was 4. For the same molecule, the MIC ([14]; Staphylococcus aureus MRSA KS6, read-out: MIC) was 0.20 µM (≈ 0.334 µg/mL), the “MIC-fold improvement vs. vancomycin” value ([15]; MRSA KS8, ratio of MIC of vancomycin and MIC of analogue) was 4 and the MIC ([15]; Staphylococcus aureus MRSA KS8, read-out: MIC) was 0.20 µM (≈ 0.334 µg/mL). For the same molecule, the “MIC-fold improvement vs. vancomycin” value ([16]; MRSA KS1, ratio of MIC of vancomycin and MIC of analogue) was 2, the MIC ([16]; Staphylococcus aureus MRSA KS1, read-out: MIC) was 0.39 µM (≈ 0.651 µg/mL) and the “MIC Range” value ([17]; 33 clinical VRE isolates) was 0.39 to 6.25 µM. For the same molecule, the “TI (IC50/MIC50)” value ([17]; in vitro therapeutic index, VRE) was 111, the MIC50 ([17]; median MIC, 33 clinical VRE isolates, read-out: MIC50) was 1.56 µM (≈ 2.6 µg/mL) and the “MIC Range” value ([18]; 24 clinical MRSA isolates) was 0.10 to 0.39 µM. For the same molecule, the “TI (IC50/MIC50)” value ([18]; in vitro therapeutic index, MRSA) was 865, the MIC50 ([18]; median MIC, 24 clinical MRSA isolates, read-out: MIC50) was 0.20 µM (≈ 0.334 µg/mL) and the “MIC-fold improvement vs. vancomycin” value [19] was “up to 45”. For the same molecule, the “MIC-fold improvement vs. vancomycin” value ([19]; listed as Vanc- 42) was 22, the “MIC-fold improvement vs. vancomycin” value [20] was no more than 58 and the MIC ([20]; C. difficile AIU ribotype 027, plate drop assay) was 0.78 µM (≈ 1.3 µg/mL). For the same molecule, the “MIC-fold improvement vs. vancomycin” value ([20]; listed as Vanc- 42) was 58, the MIC [21] was 3.13 µM (≈ 5.23 µg/mL) and the MIC [22] was 3.13 µM (≈ 5.23 µg/mL). It also gave an MIC [23] of 3.13 µM (≈ 5.23 µg/mL), an MIC [24] of 3.13 µM (≈ 5.23 µg/mL) and an MIC [25] of 3.13 µM (≈ 5.23 µg/mL). The MIC [26] was 1.56 µM (≈ 2.6 µg/mL) and the “MBC relative to MIC” value [27] was “MBC equaling their MIC values”.
